Experimental data published in publication PMC7766232, “Cyclic RGD and isoDGR Integrin Ligands Containing cis-2-amino-1-cyclopentanecarboxylic (cis-β-ACPC) Scaffolds” (Molecules, 2020).
Where two headings read alike, the source gives them in different places. Starred links: 1 amine or outer side, 2 acyl side, 3 side chain; linkers in the order of their positions; H or OH if unused. Positions of bridges follow the written chain, without caps; N, C: chain ends. Non-standard residues stand in square brackets, D forms with d. Residues, ends and D or L forms follow the SMILES beside them. X1 = O=C([C@@H]1CCC[C@@H]1N[*:1])[*:2]

Experiments:
purified αvβ3 receptor [1] = molecular target: T1, purified αvβ3 receptor (Homo sapiens, UniProt P05106+P06756); set-up: method as in PMID 23424096, PMID 28934103, PMID 28168158, PMID 31275795; conditions: reference compounds, measured using the same procedure; biotinylated vitronectin; mean ± SD; ref [29],[48],[49],[50]; cited from earlier work
purified α5β1 receptor [2] = molecular target: T2, purified α5β1 receptor (Homo sapiens, UniProt P05556+P08648); set-up: method as in PMID 23424096, PMID 28934103, PMID 28168158, PMID 31275795; conditions: reference compounds, measured using the same procedure; biotinylated fibronectin; mean ± SD; ref [29],[48],[49],[50]; cited from earlier work
purified αvβ3 receptor [3] = molecular target: T1, purified αvβ3 receptor; assay: Competitive binding assay to purified αvβ3 receptor (displacement of biotinylated vitronectin); conditions: for IC50: immobilized integrin αvβ3, biotinylated vitronectin 1 μg mL−1, mean ± SD of duplicate determinations; for selectivity ratio (IC50α5β1/IC50αvβ3): ratio of competitive binding IC50 values, α5β1 over αvβ3
Procedure: (§1) The cyclic peptidomimetics 8–10 were analyzed in a first instance for their competitive binding to purified αvβ3 and α5β1 receptors with respect to the biotinylated vitronectin or fibronectin, respectively. The IC50 values are collected in Table 1, where the values of Cilengitide (1a), cyclo-[RGDfV] (1b), cyclo-[DKP-RGD] (4), and cyclo-[DKP-isoDGR] (7), measured using the same procedure, are included as reference compounds for the RGD and isoDGR series. The new RGD compounds cyclo-[-Arg-Gly-Asp-(1S,2R)-β-ACPC-Val-] (8) and cyclo-[-Arg-Gly-Asp-(1R,2S)-β-ACPC-Val-] […] (10) is a micromolar binder for both integrins, much weaker than cyclo-[DKP-isoDGR] (7) in the case of αvβ3.
(§2) The inhibition assays of biotinylated vitronectin and fibronectin binding to the αvβ3 and α5β1 receptors, for compounds 8–10 were carried out as previously reported. […] Screening assays were performed by incubating the immobilized integrin αvβ3 or α5β1 with increasing concentrations (10^−12–10^−5 M/10^−11–10^−4 M) of the RGD and isoDGR ligands in the presence of the corresponding biotinylated ECM protein (1 μg mL^−1), and measuring bound protein in the presence of the competitive ligand. Each data point is the result of the average of triplicate wells and was analyzed by nonlinear regression analysis with the GraphPad Prism software. Each experiment was repeated in duplicate. IC50 values are the arithmetic mean ± the standard deviation (SD) of these duplicate determinations.

WM115 cells = WM115 cells (Homo sapiens, UniProt P05106+P06756); format: cell-based
Procedure: WM-115 cells were washed with MEM (Minimum Essential Medium)-buffer, detached with trypsin and resuspended to a cell density of 1 × 10^5 cells/mL. WM-115 cells were then incubated with fluorescein diacetate for 30 min at 37 °C in the dark, washed with MEM medium and resuspended with MEM medium containing CaCl2 and MgCl2 (2 mM) and incubated on ice for 30 min in the dark. […] 0.00195313, 0.00097565, 0.00048828, 0.00024414). Cells and peptide were incubated for 30 min at 37° C in the dark and afterwards added to the 96-well ELISA-plates previously coated with vitronectin and incubated for 1 h at 37 °C in the dark. Unbound cells were aspirated, and bound cells were washed three times with MEM medium and fluorescence measured (λex: 485 nm, λem: 514 nm) with an InfiniteTM 200 Microplate Reader (Tecan, Männedorf, Switzerland). […] The IC50 values were determined four times per peptide in two independent assays here reported, and the final values are the arithmetic mean ± the standard deviation (SD) of the two independent assays. The reference peptide […] was tested together with the peptides.

purified α5β1 receptor [4] = molecular target: T2, purified α5β1 receptor; assay: Competitive binding assay to purified α5β1 receptor (displacement of biotinylated fibronectin); conditions: immobilized integrin α5β1, biotinylated fibronectin 1 μg mL−1; mean ± SD of duplicate determinations
Procedure: as §1, §2

[5] = read-out: IC50 cell adhesion, 1° Assay, WM-115 cells, vitronectin-coated plates, first independent assay (Figure S4)
[6] = read-out: IC50 cell adhesion, 2° Assay, WM-115 cells, vitronectin-coated plates, second independent assay (Figure S5)
[7] = read-out: IC50 (50% inhibition of cell adhesion to vitronectin), WM115 cells, fluorescein labeled, mean ± SD of two independent assays

cyclo-(-DKP-isoAsp-Gly-Arg-) [Compound 7]
IC50 (purified αvβ3 receptor [1]): 0.0092 ± 0.0011 µM
IC50 (purified α5β1 receptor [2]): 1.07 ± 0.228 µM

CC(C)[C@@H]1NC(=O)[C@@H]2CCC[C@@H]2NC(=O)[C@H](CCCNC(=N)N)NC(=O)CNC(=O)C[C@@H](C(=O)O)NC1=O [Compound 10, cyclo-[-isoAsp-Gly-Arg-(1R,2S)-β-ACPC-Val-]] (GR[X1]VD-OH; lactam N-5)
IC50 (purified αvβ3 receptor [3]): 5.36 ± 0.281 µM
IC50 (50% inhibition of cell adhesion to vitronectin) (WM115 cells; WM115 cells, fluorescein labeled, mean ± SD of two independent assays): could not be measured
IC50 (WM115 cells; [5]): > 300 µM
IC50 (WM115 cells; [6]): > 300 µM
IC50 (purified α5β1 receptor [4]): 2.33 ± 0.134 µM

CC(C)[C@@H]1NC(=O)[C@@H]2CCC[C@@H]2NC(=O)[C@H](CC(=O)O)NC(=O)CNC(=O)[C@H](CCCNC(=N)N)NC1=O [Compound 9, cyclo-[-Arg-Gly-Asp-(1R,2S)-β-ACPC-Val-]]
IC50 (purified αvβ3 receptor [3]): 0.039 ± 0.0011 µM
selectivity ratio (IC50α5β1/IC50αvβ3) (purified αvβ3 receptor [3]): about 12
IC50 (WM115 cells; [7]): 124 µM
IC50 (WM115 cells; [5]): 117 µM
IC50 (WM115 cells; [6]): 132 µM
IC50 (purified α5β1 receptor [4]): 0.468 ± 0.114 µM

cyclo-[-DKP-Arg-Gly-Asp-] [Compound 4]
IC50 (purified αvβ3 receptor [1]): 0.0045 ± 0.0011 µM
IC50 (purified α5β1 receptor [2]): 0.532 ± 0.035 µM

cyclo[Arg-Gly-Asp-NMe Val-D-Phe] [Compound 1a]
IC50 (purified αvβ3 receptor [1]): 0.00071 ± 6e-05 µM

CC(C)[C@@H]1NC(=O)[C@H]2CCC[C@H]2NC(=O)[C@H](CC(=O)O)NC(=O)CNC(=O)[C@H](CCCNC(=N)N)NC1=O [Compound 8, cyclo-[-Arg-Gly-Asp-(1S,2R)-β-ACPC-Val-]]
IC50 (purified αvβ3 receptor [3]): 0.0443 ± 0.004 µM
selectivity ratio (IC50α5β1/IC50αvβ3) (purified αvβ3 receptor [3]): ~73
IC50 (WM115 cells; [7]): 75 ± 32.5 µM
IC50 (WM115 cells; [5]): 52 µM
IC50 (WM115 cells; [6]): 98 µM
IC50 (purified α5β1 receptor [4]): 3.23 ± 1.47 µM
